In PubChem BioAssay (NCI):
Values joined by “and” are separate entries in the source; they are usually repeats but may differ in a detail not shown here. Equal entries are not always repeated.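 Values below derive from 48-hour exposures of cells grown in 96-well plates, with endpoints linearly interpolated between the two concentrations bracketing the appropriate inhibition level. GI50 is the concentration that inhibits growth by half. TGI denotes the concentration required for complete inhibition of growth.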

system: K-562 leukemia; experiment: growth of human tumour cells (NCI), 48 h

SMILES | TGI | GI50
Cc1ccc(/C=C/C(=O)c2sc(-c3nc(C)c(C(=O)/C=C/c4ccc(C)cc4)s3)nc2C)cc1 | > 100 µM | –
O=C1/C(=C/c2ccc(Cl)cc2)CCC1CCN1CCOCC1 (stereo not given) | > 100 µM | –
CCC[CH2][Sn]([Cl])([CH2]CCC)[CH2]CCC | 0.204 µM | 0.0411 µM
O=c1ccn([C@H]2CSC[C@@H](CO)C2)c(=O)[nH]1 | > 100 µM | –
COc1cc(-n2cc(-c3ccc(F)cc3)[nH]c2=O)cc(OC)c1OC | > 100 µM | > 100 µM
C1CN2CCN3CCN4CCN1[P+]243 | > 100 µM | –

system: U251 CNS; experiment: growth of human tumour cells (NCI), 48 h

SMILES | GI50 | TGI
CN(C)CC[PH+](c1ccccc1)c1ccccc1.CN(C)CC[PH+](c1ccccc1)c1ccccc1.[Cl-].[Pd+2] | > 100 µM | > 100 µM
COc1cc(NCc2ccc3nc(N)nc(N)c3c2C)cc(OC)c1OC (tested in a mixture with another compound) | 0.00227 µM and 0.016 µM | 88.5 µM and 48.7 µM
Cc1nn(-c2ccc(Cl)cc2)c2nc3c(nc12)C(=O)c1ccccc1-3 | > 100 µM | > 100 µM
O=C(c1ccccc1)c1cc2ccccc2o1 | 54.5 µM | > 100 µM
O=C(Nc1ccncc1)C(=O)c1cn(S(=O)(=O)c2ccc(F)cc2)c2ccccc12 | 3.48 µM | > 100 µM
COc1ccc(NC(=O)/C(Cc2cc(=O)oc3cc(O)ccc23)=N\NC(C)(C)C)c(OC)c1 | – | > 100 µM
O=C1/C(=C/c2ccc3c(c2)OCO3)SC2C=Nc3ccccc3N12 (stereo not given) | – | > 100 µM
CCOc1ccc(NC(=O)C(=O)CC(=O)c2c(C)n([O-])c3ccccc3[n+]2=O)cc1 | – | > 100 µM
Cc1cc(Cl)ccc1NC(=O)C(=O)Cc1nc2ccccc2o1 | – | > 100 µM
OCC1OC(c2nc(C3=NCCCN3)cs2)C(O)C1O (stereo not given) | – | > 100 µM
Oc1cccnc1[Se] | – | > 100 µM
CCC(C)COC(=O)c1ccc(N=Cc2ccc(C=Nc3ccc(C(=O)OCC(C)CC)cc3)cc2)cc1 (stereo not given) | – | > 100 µM
Cc1cc(N(CCC#N)CCC#N)ccc1N=Nc1ccc(C(=O)O)cc1 | – | > 100 µM
CN(C)CC1CCCC/C1=N/OC(=O)c1ccc(Cl)cc1 (stereo not given) | – | > 100 µM
N#CC(C(=O)C(=O)C(C#N)c1ccc(Br)cc1)c1ccc(Br)cc1 (stereo not given) | – | 23.8 µM
O=C1/C(=C/c2cccc(Cl)c2Cl)N=C(c2ccccc2)N1C1CC1 | 12.6 µM | 34.7 µM
CCOC(=O)C(=[N+]=[N-])[Si](C)(C)C | – | 69.2 µM

SMILES | GI50 | TGI
O=C(CC1(O)C(=O)N(Cc2ccccc2)c2ccc(F)cc21)c1ccc(C(=O)NCC2CCC3(CC2)OOC2(CCCCC2)OO3)cc1 (stereo not given) | 0.251 µM | 0.674 µM
COc1cc2c3c(n(C)c(=O)c2cc1OC)-c1cc2c(cc1/C3=C\CN)OCO2 | 0.0395 µM | 3.31 µM
CCCc1nc(NC#N)nc(C(=O)Nc2ccccc2)c1CC | – | > 100 µM
O=C(CCc1n[nH]c(=S)o1)Nc1ccccc1C(F)(F)F | – | > 100 µM
CCn1c2ccccc2c2cc(NC(=O)Nc3ccc([N+](=O)[O-])cc3C)ccc21 | 3.85 µM | 21.6 µM
Cc1ccc(NC(=O)CCc2cc(C(C)(C)C)nc(=S)[nH]2)cc1C | – | > 100 µM
Cc1[nH]c2ccccc2c1C(=O)/C=C/c1ccccc1O | – | > 100 µM
O=C(Nc1nc(=S)c2c(ncn2CCOC(=O)c2ccccc2)[nH]1)c1ccccc1 | – | > 100 µM
COc1ccc(CC2NCCc3c2[nH]c2ccccc32)cc1 (stereo not given) | – | > 100 µM
CCOc1ccc(NC(=O)CC#N)cc1 | – | > 100 µM
O=C(/C=C/c1cccc2ccccc12)c1ccccc1Cl | – | 23.7 µM
COc1ccc2c(c1)C(=O)c1c-2c(N2CCN(C(=O)CNCCNCCO)CC2)nc2ccccc12 | 4.08 µM | 16.3 µM
COc1ccc(Nc2nnc(-c3cc(O)ccc3O)s2)cc1 | 16.7 µM | > 50 µM
Cc1ccc(/C=C/C(=O)c2sc(-c3nc(C)c(C(=O)/C=C/c4ccc(C)cc4)s3)nc2C)cc1 | – | > 100 µM
Cn1cc(-c2csc(-c3c[nH]c4ccc(F)cc34)n2)c2cnccc21 | 1.87 µM | 3.4 µM
CCC[CH2][Sn]([Cl])([CH2]CCC)[CH2]CCC | 0.113 µM | 0.236 µM
O=c1ccn([C@H]2CSC[C@@H](CO)C2)c(=O)[nH]1 | – | > 100 µM
